# What was measured:
# L-selectin = biological target: T1, L-selectin (Homo sapiens, UniProt P14151); experiment: Inhibitory concentration against blocking of Selectin L during migration of inflammatory cells to inflammatory site
# T1 sequence (P14151 whole entry): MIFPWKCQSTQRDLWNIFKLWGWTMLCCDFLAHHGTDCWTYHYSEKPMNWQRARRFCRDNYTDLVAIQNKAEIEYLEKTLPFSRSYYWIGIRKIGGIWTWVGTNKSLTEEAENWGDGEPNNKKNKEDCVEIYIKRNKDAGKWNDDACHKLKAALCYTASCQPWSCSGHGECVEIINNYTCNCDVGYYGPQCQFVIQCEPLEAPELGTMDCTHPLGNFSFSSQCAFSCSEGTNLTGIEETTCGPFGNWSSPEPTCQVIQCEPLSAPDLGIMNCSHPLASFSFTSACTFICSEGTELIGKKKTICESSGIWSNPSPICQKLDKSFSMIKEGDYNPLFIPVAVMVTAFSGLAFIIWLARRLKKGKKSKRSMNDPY
# P-selectin = biological target: T2, P-selectin (Homo sapiens, UniProt P16109); experiment: Inhibitory concentration against blocking of Selectin P during migration of inflammatory cells to inflammatory site
# T2 sequence (P16109 whole entry): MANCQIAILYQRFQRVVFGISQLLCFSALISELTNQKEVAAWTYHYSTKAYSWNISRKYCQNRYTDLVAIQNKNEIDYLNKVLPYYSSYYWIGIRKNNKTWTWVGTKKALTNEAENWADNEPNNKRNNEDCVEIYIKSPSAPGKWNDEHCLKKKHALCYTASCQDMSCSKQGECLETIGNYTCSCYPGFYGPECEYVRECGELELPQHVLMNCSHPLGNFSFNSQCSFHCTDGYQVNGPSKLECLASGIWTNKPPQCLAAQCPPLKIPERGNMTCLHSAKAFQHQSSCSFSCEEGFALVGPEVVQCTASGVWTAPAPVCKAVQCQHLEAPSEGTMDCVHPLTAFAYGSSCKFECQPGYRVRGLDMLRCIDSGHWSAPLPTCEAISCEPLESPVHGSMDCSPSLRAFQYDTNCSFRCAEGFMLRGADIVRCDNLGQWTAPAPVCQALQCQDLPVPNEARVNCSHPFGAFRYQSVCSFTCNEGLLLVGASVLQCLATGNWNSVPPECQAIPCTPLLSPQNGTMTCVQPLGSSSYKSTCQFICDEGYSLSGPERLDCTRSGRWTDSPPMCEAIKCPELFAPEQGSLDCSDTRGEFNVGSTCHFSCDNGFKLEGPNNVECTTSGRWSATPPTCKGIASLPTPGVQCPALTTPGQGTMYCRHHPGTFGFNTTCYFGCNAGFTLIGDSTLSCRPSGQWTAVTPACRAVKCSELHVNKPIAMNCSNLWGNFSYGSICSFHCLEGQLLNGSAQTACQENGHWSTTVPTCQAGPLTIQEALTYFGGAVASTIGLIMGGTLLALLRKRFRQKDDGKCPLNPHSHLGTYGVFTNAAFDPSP
# E-selectin = biological target: T3, E-selectin (Homo sapiens, UniProt P16581); experiment: Inhibitory concentration against blocking of E-selectin during migration of inflammatory cells to inflammatory site
# T3 sequence (P16581 whole entry): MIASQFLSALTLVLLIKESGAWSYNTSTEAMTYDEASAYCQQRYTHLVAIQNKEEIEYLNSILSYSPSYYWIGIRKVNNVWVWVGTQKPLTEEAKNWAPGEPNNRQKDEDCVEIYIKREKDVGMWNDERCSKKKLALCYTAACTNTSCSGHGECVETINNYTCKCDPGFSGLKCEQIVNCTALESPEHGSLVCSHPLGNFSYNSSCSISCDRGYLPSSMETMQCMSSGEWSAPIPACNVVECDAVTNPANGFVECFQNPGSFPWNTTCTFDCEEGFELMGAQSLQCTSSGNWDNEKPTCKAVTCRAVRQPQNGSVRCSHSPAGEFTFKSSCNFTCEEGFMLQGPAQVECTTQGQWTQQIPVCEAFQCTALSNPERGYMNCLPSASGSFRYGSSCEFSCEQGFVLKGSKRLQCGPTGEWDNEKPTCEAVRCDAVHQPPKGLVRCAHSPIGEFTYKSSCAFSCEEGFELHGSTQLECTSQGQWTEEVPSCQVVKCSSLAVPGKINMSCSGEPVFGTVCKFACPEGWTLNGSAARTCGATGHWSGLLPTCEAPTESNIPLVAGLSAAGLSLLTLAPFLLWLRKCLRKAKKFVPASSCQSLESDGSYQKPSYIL
IC50 (L-selectin) [mM],IC50 (P-selectin) [mM],IC50 (E-selectin) [mM],Structure (SMILES)
> 1,> 1,–,CC(=O)N[C@H]1[C@H]([C@H](O)[C@H](O)CO)O[C@@](O[C@H]2[C@@H](O)[C@@H](CO)O[C@@H](O[C@@H]([C@H](O[C@@H]3O[C@@H](C)[C@@H](O)[C@@H](O)[C@@H]3O)[C@H](C=O)NC(C)=O)[C@H](O)CO)[C@@H]2O)(C(=O)O)C[C@@H]1O [SIALYL LEWIS X]
> 1,0.3,> 1,CC1OC(OC2C(O)COC(CO)C2OC2OC(CO)C(O)C(OS(=O)(=O)O)C2O)C(O)C(O)C1O (stereo not given)

# — ChEMBL document CHEMBL1129315, “Studies on selectin blockers. 2. Novel selectin blocker as potential therapeutics for inflammatory disorders” (J Med Chem, 1996)
